Results as given in patent US6590140B1, “Metal-regulated transporters and uses therefor” (Trustees of Dartmouth College, priority 1996, dated 2003).

Biological target: T1, IRT1 (Arabidopsis thaliana, UniProt Q38856)
T1 construct: contain a single 1017 bp open reading frame capable of encoding a polypeptide of 339 amino acids; expressed in transfected cells; host or cells: S. cerevisiae fet3 fet4 strain DEY1453 carrying pIRT-1 (pFL61 library vector, phosphoglycerate kinase promoter)
T1 sequence (Q38856 9-347 limits assumed): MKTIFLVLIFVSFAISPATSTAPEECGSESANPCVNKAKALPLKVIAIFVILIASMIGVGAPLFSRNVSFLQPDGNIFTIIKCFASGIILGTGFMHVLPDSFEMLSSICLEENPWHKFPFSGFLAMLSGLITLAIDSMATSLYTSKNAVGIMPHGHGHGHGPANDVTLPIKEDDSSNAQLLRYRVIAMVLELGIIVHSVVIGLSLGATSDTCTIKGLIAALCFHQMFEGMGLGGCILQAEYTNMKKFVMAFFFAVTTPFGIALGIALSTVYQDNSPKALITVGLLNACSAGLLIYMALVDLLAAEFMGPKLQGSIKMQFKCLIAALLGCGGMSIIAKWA
Assay: 55Fe uptake in fet3 fet4 yeast expressing IRT1
Format: cell-based
Conditions: for effect on the rate of iron uptake by IRT1: 10 μM metal, 10 times the radiolabeled iron, Fe(II) with 1 mM ascorbate
Procedure: Iron uptake assays using ^55FeCl3 (Amersham, Arlington Heights, Ill.) were performed as described (Eide, D. et al. (1992) J. Biol. Chem. 267: 20774-20781) except that MGN (10 mM Mes/2% glucose/1 mM nitrilotriacetic acid, pH 6.1) was used for the assay buffer. Where noted, 1 mM sodium ascorbate was added to reduce Fe(III) to Fe(II). Stock solutions of the chloride salt of each metal (except for iron) were prepared in water at a concentration of 100 mM and diluted into MGN to a final concentration of 10 μM before addition of the cells. The ^56FeCl3 stock was 50 mM prepared in 0.1 M HCl. The statistical significance of differences in values relative to controls was determined using STATVIEW software (Abacus Concepts, Berkeley, Calif.). Data was subjected to one-way analysis of variance (ANOVA) followed by a Scheffe's test.
To determine if IRT1 encodes an iron transporter, ^55Fe uptake rates were examined in a fet3 fet4 strain expressing IRT1. Little or no uptake was detected at 0° C. for either IRT1-expressing or untransformed control cells (FIG. 2A). The fet3 fet4 mutant strain DEY1453 (circles) and DEY1453 transformed with pIRT-1 (squares) were grown to exponential phase in SD glucose and assayed for iron uptake with ^55Fe. (A) Time- and temperature-dependence of iron accumulation assayed in MGN with 1 mM ascorbate and 5 μM ^55FeCl3 assayed at 30° C. (open symbols) or 0° C. (solid symbols). The dashed line marked with open triangles represents the IRT1-dependent accumulation, i.e., the accumulation of iron by the untransformed strain at 30° C. subtracted from the accumulation of the pIRT-1-bearing strain at 30° C. […] The IRT1-dependent rate was ≈3-fold higher than the control uptake rate. No increased uptake was apparent in strains bearing either of two randomly selected clones from the library, indicating the dependence of these uptake effects on expression of IRT1. The iron uptake activity dependent on IRT1 expression was also concentration-dependent and saturable (FIG. 2B). The same strains as in A were assayed for iron uptake rates for 10 min over a range of concentrations. The dashed lines marked with open triangles represents the IRT1-dependent uptake rate, i.e., background uptake rate of the untransformed strain subtracted from the corresponding rate of the pIRT-1-bearing strains. (Inset) Eadie-Hofstee plot of the IRT1-dependent uptake data. Each point represents the mean of three experiments each performed in duplicate. The standard deviation within each experiment was less that 20% of the corresponding mean.
The experiments described above were conducted with iron supplied as Fe(II), i.e., in the presence of ascorbate, an agent capable of reducing Fe(III) to Fe(II). To determine if Fe(II) is the preferred substrate over Fe(III), assays were carried out in the absence of ascorbate where iron is supplied to the cells as Fe(III). […] The fet3 fet4 mutant strain DEY1453 and DEY1453 transformed with pIRT-1 were grown to exponential phase is SD glucose and assayed for iron uptake with 1 μM FeCl3 in MGN for 10 min. The values shown are the IRT1-dependent rates, i.e., the untransformed strain control values were subtracted from the DEY1453 pIRT-1 values and represent the means of four replicates. The asterisks indicate significant of differences from the control values (P<0.05). Assays were performed in the absence [Fe(III)] or presence [Fe(II)] of 1 mM ascorbate. […] Although yeast are capable of reducing Fe(III) to Fe(II) through the action of plasma membrane Fe(III) reductases, this rate of cell-mediated reduction is slower than reduction by ascorbate and therefore may be rate-limiting for IRT1-dependent uptake. To assess if metals other than iron are potential substrates for IRT1, several transition metals were tested for their ability to inhibit accumulation of iron in IRT1-expressing cells (FIG. 3B). Assays were conducted in the absence (−) or presence of 10 μM metal. […]

[Cl-].[Cl-].[Co+2] [Co]
inhibition of IRT1-mediated Fe(II) uptake in yeast (summary statement): inhibitors of IRT1-mediated Fe(II) uptake | effect on the rate of iron uptake by IRT1 (10 min): no significant effect

[Cl][Cu][Cl] [Cu]
effect on the rate of iron uptake by IRT1 (10 min): no significant effect

[Fe+2] [Fe(II)]
IRT1-dependent uptake rate relative to control uptake rate (5 μM 55FeCl3, 1 mM ascorbate, 30° C., first 10 min): ≈ 3 fold | effect on the rate of iron uptake by IRT1 (10 min): potent inhibitors | Vmax of IRT1-mediated iron uptake (iron supplied as Fe(II) (1 mM ascorbate), 10 min, DEY1453 pIRT-1 minus untransformed strain): 1.9±0.4 pmol per min per 10^6 cells | Km (iron supplied as Fe(II) (1 mM ascorbate), 10 min, DEY1453 pIRT-1 minus untransformed strain, read-out: apparent Km of IRT1-mediated iron uptake): 6 ± 1 µM

[Cl][Fe]([Cl])[Cl] [Fe(III)]
iron uptake rate in the absence of ascorbate relative to rate with ascorbate (1 μM FeCl3 in MGN, 10 min, iron supplied as Fe(III)): ≈ 10%

[Cl][Mn][Cl] [Mn]
inhibition of IRT1-mediated Fe(II) uptake in yeast (summary statement): inhibitors of IRT1-mediated Fe(II) uptake | effect on the rate of iron uptake by IRT1 (10 min): no significant effect

[Cl][Ni][Cl] [Ni]
effect on the rate of iron uptake by IRT1 (10 min): no significant effect

[Zn+2] [zinc]
inhibition of IRT1-mediated Fe(II) uptake in yeast (summary statement): inhibitors of IRT1-mediated Fe(II) uptake | effect on the rate of iron uptake by IRT1 (10 min): no significant effect
